Laboratory results as given in paper PMC5988656, “Phase I studies of AZD1208, a proviral integration Moloney virus kinase inhibitor in solid and haematological cancers” (British Journal of Cancer, 2018).

Assay: Solid tumour dose-escalation study: pharmacokinetics (plasma, urine)
Format: in vivo, human
Description: The schedules for collection of blood and urine samples for PK analyses in each cohort in both studies are described in Supplementary Table 1. When necessary for clinical response assessment in the AML study, a bone marrow sample for PK analysis was collected at Cycle 1, Day 28.
The concentration of AZD1208 in plasma and urine was determined by Covance, on behalf of Clinical Bioanalysis Alliance at AstraZeneca R&D, using a bioanalytical method. A volume of 0.05 ml of K2EDTA human plasma sample was extracted by liquid–liquid extraction using 0.7 ml of methyl tert-butyl ether. Approximately 100 µl of the supernatant was transferred, evaporated to dryness and reconstituted with 350 µl of 1:1 methanol:water, and a 5 µl injection was made to the high-performance liquid chromatography (HPLC) column. HPLC separations were performed on a Phenomenex LUNA C18 (50 × 2 mm, 5 µm) column using a mobile phase of 0.1% formic acid in water (A) and 0.1% formic acid in acetonitrile (B) at a flow rate of 0.6 ml/min and a column temperature of 40 °C. AZD1208-D5 was used as the internal standard. Detection was performed in a Sciex API4000 mass spectrometer, in a positive electrospray ionisation mode, using multiple reaction monitoring detection (AZD1208: 380.0–>248.1; AZD1208-D5: 385.0–>253.1).

**Q.** With `N[C@@H]1CCCN(c2c(/C=C3\SC(=O)NC3=O)cccc2-c2ccccc2)C1` [AZD1208] as the molecule, how does the “Plasma concentration of AZD1208, Gmean” value (Cycle 0, Day 1, 1 h post-dose, 120 mg) read?
**A.** n=3 156.2 ng ml

**Q.** And the “Plasma concentration of AZD1208, Gmean” value (Cycle 0, Day 1, 1 h post-dose, 240 mg)?
**A.** n=7 668.4 ng ml

**Q.** And the “Plasma concentration of AZD1208, Gmean” value (Cycle 0, Day 1, 1 h post-dose, 360 mg)?
**A.** n=5 1424 ng ml

**Q.** And the “Plasma concentration of AZD1208, Gmean” value (Cycle 0, Day 1, 1 h post-dose, 540 mg)?
**A.** n=7 1053 ng ml

**Q.** What about the “Plasma concentration of AZD1208, Gmean” value (Cycle 0, Day 1, 1 h post-dose, 700 mg) of the same molecule?
**A.** n=6 691.7 ng ml

**Q.** And the “Plasma concentration of AZD1208, Gmean” value (Cycle 0, Day 1, 1 h post-dose, 800 mg)?
**A.** n=6 925.6 ng ml

**Q.** What about the “Plasma concentration of AZD1208, Gmean” value (Cycle 0, Day 1, 1.5 h post-dose, 120 mg) of the same molecule?
**A.** n=3 696.5 ng ml

**Q.** What about the “Plasma concentration of AZD1208, Gmean” value (Cycle 0, Day 1, 1.5 h post-dose, 240 mg) of the same molecule?
**A.** n=7 1317 ng ml

**Q.** And the “Plasma concentration of AZD1208, Gmean” value (Cycle 0, Day 1, 1.5 h post-dose, 360 mg)?
**A.** n=5 2509 ng ml

**Q.** And the “Plasma concentration of AZD1208, Gmean” value (Cycle 0, Day 1, 1.5 h post-dose, 540 mg)?
**A.** n=7 2747 ng ml

**Q.** And the “Plasma concentration of AZD1208, Gmean” value (Cycle 0, Day 1, 2 h post-dose, 120 mg)?
**A.** n=3 1064 ng ml

**Q.** What about the “Plasma concentration of AZD1208, Gmean” value (Cycle 0, Day 1, 2 h post-dose, 240 mg) of the same molecule?
**A.** n=7 1906 ng ml

**Q.** And the “Plasma concentration of AZD1208, Gmean” value (Cycle 0, Day 1, 2 h post-dose, 360 mg)?
**A.** n=6 3412 ng ml

**Q.** And the “Plasma concentration of AZD1208, Gmean” value (Cycle 0, Day 1, 2 h post-dose, 540 mg)?
**A.** n=7 4049 ng ml

**Q.** And the “Plasma concentration of AZD1208, Gmean” value (Cycle 0, Day 1, 2 h post-dose, 700 mg)?
**A.** n=6 3514 ng ml

**Q.** And the “Plasma concentration of AZD1208, Gmean” value (Cycle 0, Day 1, 2 h post-dose, 800 mg)?
**A.** n=6 2929 ng ml

**Q.** What about the “Plasma concentration of AZD1208, Gmean” value (Cycle 0, Day 1, 4 h post-dose, 120 mg) of the same molecule?
**A.** n=3 720.6 ng ml

**Q.** And the “Plasma concentration of AZD1208, Gmean” value (Cycle 0, Day 1, 4 h post-dose, 240 mg)?
**A.** n=6 1531 ng ml

**Q.** What about the “Plasma concentration of AZD1208, Gmean” value (Cycle 0, Day 1, 4 h post-dose, 360 mg) of the same molecule?
**A.** n=6 3157 ng ml

**Q.** What about the “Plasma concentration of AZD1208, Gmean” value (Cycle 0, Day 1, 4 h post-dose, 540 mg) of the same molecule?
**A.** n=7 3160 ng ml

**Q.** What about the “Plasma concentration of AZD1208, Gmean” value (Cycle 0, Day 1, 4 h post-dose, 700 mg) of the same molecule?
**A.** n=6 4581 ng ml

**Q.** And the “Plasma concentration of AZD1208, Gmean” value (Cycle 0, Day 1, 4 h post-dose, 800 mg)?
**A.** n=6 3844 ng ml

**Q.** And the “Plasma concentration of AZD1208, Gmean” value (Cycle 0, Day 1, 6 h post-dose, 120 mg)?
**A.** n=3 681 ng ml

**Q.** What about the “Plasma concentration of AZD1208, Gmean” value (Cycle 0, Day 1, 6 h post-dose, 240 mg) of the same molecule?
**A.** n=7 1408 ng ml

**Q.** And the “Plasma concentration of AZD1208, Gmean” value (Cycle 0, Day 1, 6 h post-dose, 360 mg)?
**A.** n=6 2501 ng ml

**Q.** And the “Plasma concentration of AZD1208, Gmean” value (Cycle 0, Day 1, 6 h post-dose, 540 mg)?
**A.** n=7 3190 ng ml

**Q.** And the “Plasma concentration of AZD1208, Gmean” value (Cycle 0, Day 1, 6 h post-dose, 700 mg)?
**A.** n=6 5091 ng ml

**Q.** And the “Plasma concentration of AZD1208, Gmean” value (Cycle 0, Day 1, 6 h post-dose, 800 mg)?
**A.** n=6 2677 ng ml

**Q.** And the “Plasma concentration of AZD1208, Gmean” value (Cycle 0, Day 1, 8 h post-dose, 120 mg)?
**A.** n=3 597.8 ng ml

**Q.** What about the “Plasma concentration of AZD1208, Gmean” value (Cycle 0, Day 1, 8 h post-dose, 240 mg) of the same molecule?
**A.** n=7 1456 ng ml

**Q.** And the “Plasma concentration of AZD1208, Gmean” value (Cycle 0, Day 1, 8 h post-dose, 360 mg)?
**A.** n=6 2196 ng ml

**Q.** What about the “Plasma concentration of AZD1208, Gmean” value (Cycle 0, Day 1, 8 h post-dose, 540 mg) of the same molecule?
**A.** n=7 2957 ng ml

**Q.** And the “Plasma concentration of AZD1208, Gmean” value (Cycle 0, Day 1, 8 h post-dose, 700 mg)?
**A.** n=6 4256 ng ml

**Q.** And the “Plasma concentration of AZD1208, Gmean” value (Cycle 0, Day 1, 8 h post-dose, 800 mg)?
**A.** n=6 3463 ng ml

**Q.** What about the “Plasma concentration of AZD1208, Gmean” value (Cycle 0, Day 1, 24 h post-dose, 120 mg) of the same molecule?
**A.** n=3 459.4 ng ml

**Q.** And the “Plasma concentration of AZD1208, Gmean” value (Cycle 0, Day 1, 24 h post-dose, 240 mg)?
**A.** n=7 1157 ng ml

**Q.** What about the “Plasma concentration of AZD1208, Gmean” value (Cycle 0, Day 1, 24 h post-dose, 360 mg) of the same molecule?
**A.** n=6 1649 ng ml

**Q.** What about the “Plasma concentration of AZD1208, Gmean” value (Cycle 0, Day 1, 24 h post-dose, 540 mg) of the same molecule?
**A.** n=7 2111 ng ml

**Q.** And the “Plasma concentration of AZD1208, Gmean” value (Cycle 0, Day 1, 24 h post-dose, 700 mg)?
**A.** n=6 2957 ng ml

**Q.** What about the “Plasma concentration of AZD1208, Gmean” value (Cycle 0, Day 1, 24 h post-dose, 800 mg) of the same molecule?
**A.** n=6 2466 ng ml

**Q.** And the “Plasma concentration of AZD1208, Gmean” value (Cycle 0, Day 1, 48 h post-dose, 120 mg)?
**A.** n=3 308.4 ng ml

**Q.** What about the “Plasma concentration of AZD1208, Gmean” value (Cycle 0, Day 1, 48 h post-dose, 240 mg) of the same molecule?
**A.** n=7 773.2 ng ml

**Q.** What about the “Plasma concentration of AZD1208, Gmean” value (Cycle 0, Day 1, 48 h post-dose, 360 mg) of the same molecule?
**A.** n=6 1361 ng ml

**Q.** What about the “Plasma concentration of AZD1208, Gmean” value (Cycle 0, Day 1, 48 h post-dose, 540 mg) of the same molecule?
**A.** n=7 1168 ng ml

**Q.** What about the “Plasma concentration of AZD1208, Gmean” value (Cycle 0, Day 1, 48 h post-dose, 700 mg) of the same molecule?
**A.** n=6 1717 ng ml

**Q.** What about the “Plasma concentration of AZD1208, Gmean” value (Cycle 0, Day 1, 48 h post-dose, 800 mg) of the same molecule?
**A.** n=6 1377 ng ml

**Q.** And the “Plasma concentration of AZD1208, Gmean” value (Cycle 0, Day 1, 72 h post-dose, 120 mg)?
**A.** n=3 221.4 ng ml

**Q.** What about the “Plasma concentration of AZD1208, Gmean” value (Cycle 0, Day 1, 72 h post-dose, 240 mg) of the same molecule?
**A.** n=7 501.1 ng ml

**Q.** What about the “Plasma concentration of AZD1208, Gmean” value (Cycle 0, Day 1, 72 h post-dose, 360 mg) of the same molecule?
**A.** n=6 912.2 ng ml

**Q.** And the “Plasma concentration of AZD1208, Gmean” value (Cycle 0, Day 1, 72 h post-dose, 540 mg)?
**A.** n=7 710.8 ng ml

**Q.** What about the “Plasma concentration of AZD1208, Gmean” value (Cycle 0, Day 1, 72 h post-dose, 700 mg) of the same molecule?
**A.** n=6 1141 ng ml

**Q.** And the “Plasma concentration of AZD1208, Gmean” value (Cycle 0, Day 1, 72 h post-dose, 800 mg)?
**A.** n=6 798.7 ng ml

**Q.** And the “Plasma concentration of AZD1208, Gmean” value (Cycle 1, Day 15, 0.25 h post-dose, 120 mg)?
**A.** n=3 963.7 ng ml

**Q.** And the “Plasma concentration of AZD1208, Gmean” value (Cycle 1, Day 15, 0.25 h post-dose, 240 mg)?
**A.** n=6 606.8 ng ml

**Q.** And the “Plasma concentration of AZD1208, Gmean” value (Cycle 1, Day 15, 0.25 h post-dose, 360 mg)?
**A.** n=2 562.8 ng ml
